Patent US20070117770A1, “Human ribosomal DNA (rDNA) and ribosomal RNA (rRNA) nucleic acids and uses thereof” (Cylene Pharmaceuticals, Inc., priority 2005, published 2007)

Experiments:
Test in all cases: Protein kinase inhibition assay
Type in all cases: biochemical
[1] = target: EGFR(L861Q)(h) (Homo sapiens, UniProt P00533, L861Q); conditions: read-out: percent residual activity of EGFR(L861Q)(h)
Procedure: (§1) Certain compounds were tested for activity in protein kinase inhibition assays. All substrates were dissolved and diluted to working stocks in de-ionized water, apart from histone H1 (10× working stock in 20 mM MOPS pH 7.0), PDKtide (10× working stock in 50 mM Tris pH 7.0) ATF2 (which is typically stored at a 20× working stock in 50 mM Tris pH 7.5, 150 mM NaCl, 0.1 mM EGTA, 0.03% Brij-35, 50% glycerol, 1 mM benzamidine, 0.2 mM PMSF and 0.1% R-mercaptoethanol), KKLNRTLSFAEPG (SEQ ID NO:203) and RRRLSFAEPG (SEQ ID NO:204) (50 mM HEPES pH 7.4) and GGEEEEYFELVKKKK (SEQ ID NO:205) (20 mM MOPS pH 7.0). All kinases were pre-diluted to a 10× working concentration prior to addition into the assay. The composition of the dilution buffer for each kinase is detailed below.
(§2) In a final reaction volume of 25 μl, EGFR (L861 Q) (h) (5-10 mU) is incubated with 8 mM MOPS pH 7.0, 0.2 mM EDTA, 0.1 mg/ml poly(Glu, Tyr) 4:1, 10 mM MgAcetate and [gamma-33P-ATP] (specific activity approx. 500 cpm/pmol, concentration as required). The reaction is initiated by the addition of the MgATP mix. After incubation for 40 minutes at room temperature, the reaction is stopped by the addition of 5 μl of a 3% phosphoric acid solution. 10 μl of the reaction is then spotted onto a Filtermat A and washed three times for 5 minutes in 75 mM phosphoric acid and once in methanol prior to drying and scintillation counting.

[2] = target: Lyn(h) (Homo sapiens, UniProt P07948); conditions: read-out: percent residual activity of Lyn(h)
Chain of Lyn(h) (P07948 whole entry): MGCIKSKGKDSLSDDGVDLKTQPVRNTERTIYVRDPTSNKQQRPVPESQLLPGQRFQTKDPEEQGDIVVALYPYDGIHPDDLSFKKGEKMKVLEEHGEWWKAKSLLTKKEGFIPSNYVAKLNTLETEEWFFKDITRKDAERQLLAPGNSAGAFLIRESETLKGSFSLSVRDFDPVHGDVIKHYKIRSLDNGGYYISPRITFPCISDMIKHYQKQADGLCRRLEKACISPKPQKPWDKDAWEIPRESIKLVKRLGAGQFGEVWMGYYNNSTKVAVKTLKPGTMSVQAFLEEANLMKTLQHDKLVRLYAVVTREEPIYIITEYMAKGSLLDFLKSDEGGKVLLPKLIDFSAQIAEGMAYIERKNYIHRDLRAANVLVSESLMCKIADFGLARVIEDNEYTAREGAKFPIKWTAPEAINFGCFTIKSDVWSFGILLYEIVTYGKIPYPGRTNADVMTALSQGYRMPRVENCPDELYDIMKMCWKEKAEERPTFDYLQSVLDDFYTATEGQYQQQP
Procedure: as §1
In a final reaction volume of 25 μl, Lyn (h) (5-10 mU) is incubated with 50 mM Tris pH 7.5, 0.1 mM EGTA, 0.1 mM Na3VO4, 0.1% R-mercaptoethanol, 0.1 mg/ml poly(Glu, Tyr) 4:1, 10 mM MgAcetate and [gamma-33P-ATP] (specific activity approx. 500 cpm/pmol, concentration as required). The reaction is initiated by the addition of the MgATP mix. After incubation for 40 minutes at room temperature, the reaction is stopped by the addition of 5 μl of a 3% phosphoric acid solution. […]

[3] = target: CDK5/p25(h) (Homo sapiens, UniProt Q00535); conditions: read-out: percent residual activity of CDK5/p25(h)
Chain of CDK5/p25(h) (Q00535 whole entry): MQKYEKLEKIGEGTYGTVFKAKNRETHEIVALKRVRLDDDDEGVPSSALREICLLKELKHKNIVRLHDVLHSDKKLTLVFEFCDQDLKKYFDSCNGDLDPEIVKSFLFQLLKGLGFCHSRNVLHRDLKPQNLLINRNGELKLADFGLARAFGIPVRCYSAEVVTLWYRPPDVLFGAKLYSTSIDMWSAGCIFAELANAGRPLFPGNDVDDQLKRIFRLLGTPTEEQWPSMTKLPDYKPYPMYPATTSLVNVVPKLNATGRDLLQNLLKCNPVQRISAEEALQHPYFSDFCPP
Chain of CDK5/p25(h) (Q15078 99-307 partner limits assumed): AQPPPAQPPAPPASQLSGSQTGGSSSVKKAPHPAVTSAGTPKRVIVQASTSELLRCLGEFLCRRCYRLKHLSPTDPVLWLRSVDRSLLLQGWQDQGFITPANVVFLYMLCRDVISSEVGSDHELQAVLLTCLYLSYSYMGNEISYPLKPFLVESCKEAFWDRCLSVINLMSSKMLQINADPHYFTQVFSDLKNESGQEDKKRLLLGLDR
Procedure: as §1
as §2, with “CDK5/p25” for “EGFR (L861 Q)”, “histone H1,” for “poly(Glu, Tyr) 4:1,”, “[y-33P-ATP]” for “[gamma-33P-ATP]”, “P30 filtermat” for “Filtermat A”

[4] = target: ROCK-II(r) (Rattus norvegicus, UniProt Q62868); conditions: read-out: percent residual activity of ROCK-II(r)
Chain of ROCK-II(r) (Q62868 whole entry): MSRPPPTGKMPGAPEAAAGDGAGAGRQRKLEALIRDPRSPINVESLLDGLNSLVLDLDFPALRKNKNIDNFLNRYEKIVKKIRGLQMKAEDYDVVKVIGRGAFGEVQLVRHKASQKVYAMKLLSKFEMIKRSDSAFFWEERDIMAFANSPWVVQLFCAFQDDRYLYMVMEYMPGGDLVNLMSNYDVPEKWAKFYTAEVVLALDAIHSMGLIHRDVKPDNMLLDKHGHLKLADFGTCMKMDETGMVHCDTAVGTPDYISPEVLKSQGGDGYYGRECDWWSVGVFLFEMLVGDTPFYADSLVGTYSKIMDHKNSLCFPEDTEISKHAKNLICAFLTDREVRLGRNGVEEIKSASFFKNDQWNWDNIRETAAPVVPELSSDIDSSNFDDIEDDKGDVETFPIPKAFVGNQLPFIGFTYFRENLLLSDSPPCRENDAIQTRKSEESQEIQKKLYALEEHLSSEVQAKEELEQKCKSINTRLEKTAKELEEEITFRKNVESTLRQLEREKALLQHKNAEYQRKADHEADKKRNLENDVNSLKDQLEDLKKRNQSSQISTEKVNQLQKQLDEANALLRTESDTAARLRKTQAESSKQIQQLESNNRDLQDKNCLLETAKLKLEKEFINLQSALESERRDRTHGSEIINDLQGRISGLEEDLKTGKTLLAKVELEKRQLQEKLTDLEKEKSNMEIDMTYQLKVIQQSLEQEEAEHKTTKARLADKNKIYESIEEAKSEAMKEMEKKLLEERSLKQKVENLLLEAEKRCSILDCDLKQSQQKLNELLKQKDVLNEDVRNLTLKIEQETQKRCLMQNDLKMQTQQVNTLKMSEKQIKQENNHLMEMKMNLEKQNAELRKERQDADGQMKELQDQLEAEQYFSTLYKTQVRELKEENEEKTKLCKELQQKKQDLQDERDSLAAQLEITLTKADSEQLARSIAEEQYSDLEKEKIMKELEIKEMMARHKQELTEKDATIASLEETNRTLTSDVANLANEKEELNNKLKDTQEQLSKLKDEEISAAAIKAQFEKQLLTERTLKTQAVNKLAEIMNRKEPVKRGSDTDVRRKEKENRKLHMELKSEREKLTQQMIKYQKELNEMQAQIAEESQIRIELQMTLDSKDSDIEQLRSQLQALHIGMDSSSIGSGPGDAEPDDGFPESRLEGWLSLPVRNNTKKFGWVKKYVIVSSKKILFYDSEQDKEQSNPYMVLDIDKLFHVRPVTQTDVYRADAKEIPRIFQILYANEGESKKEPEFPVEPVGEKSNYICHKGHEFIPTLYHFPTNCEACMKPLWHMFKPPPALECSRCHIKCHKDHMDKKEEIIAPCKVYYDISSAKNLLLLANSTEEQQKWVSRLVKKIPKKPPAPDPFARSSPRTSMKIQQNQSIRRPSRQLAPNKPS
Procedure: as §1
as §2, with “ROCK-II (r)” for “EGFR (L861 Q) (h)”, “50” for “8”, “Tris” for “MOPS”, “7.5, 0.1” for “7.0, 0.2”, “EGTA, 30 μM […] (SEQ ID NO:222),” for “EDTA, 0.1 mg/ml poly(Glu, Tyr) 4:1,”, “P30 filtermat” for “Filtermat A”

[5] = target: CaMKIV(h) (Homo sapiens, UniProt Q16566); conditions: read-out: percent residual activity of CaMKIV(h)
Procedure: as §1
In a final reaction volume of 25 μl, CaMKIV (h) (5-10 mU) is incubated with 40 mM HEPES pH 7.4, 5 mM CaCl2, 30 μg/ml calmodulin, 30 μM KKLNRTLSVA (SEQ ID NO:212), 10 mM MgAcetate and [gamma-33P-ATP] (specific activity approx. 500 cpm/pmol, concentration as required). The reaction is initiated by the addition of the MgATP mix. After incubation for 40 minutes at room temperature, the reaction is stopped by the addition of 5 μl of a 3% phosphoric acid solution. […]

[6] = target: ROCK-II(h) (Homo sapiens, UniProt O75116); conditions: read-out: percent residual activity of ROCK-II(h)
Chain of ROCK-II(h) (O75116 whole entry): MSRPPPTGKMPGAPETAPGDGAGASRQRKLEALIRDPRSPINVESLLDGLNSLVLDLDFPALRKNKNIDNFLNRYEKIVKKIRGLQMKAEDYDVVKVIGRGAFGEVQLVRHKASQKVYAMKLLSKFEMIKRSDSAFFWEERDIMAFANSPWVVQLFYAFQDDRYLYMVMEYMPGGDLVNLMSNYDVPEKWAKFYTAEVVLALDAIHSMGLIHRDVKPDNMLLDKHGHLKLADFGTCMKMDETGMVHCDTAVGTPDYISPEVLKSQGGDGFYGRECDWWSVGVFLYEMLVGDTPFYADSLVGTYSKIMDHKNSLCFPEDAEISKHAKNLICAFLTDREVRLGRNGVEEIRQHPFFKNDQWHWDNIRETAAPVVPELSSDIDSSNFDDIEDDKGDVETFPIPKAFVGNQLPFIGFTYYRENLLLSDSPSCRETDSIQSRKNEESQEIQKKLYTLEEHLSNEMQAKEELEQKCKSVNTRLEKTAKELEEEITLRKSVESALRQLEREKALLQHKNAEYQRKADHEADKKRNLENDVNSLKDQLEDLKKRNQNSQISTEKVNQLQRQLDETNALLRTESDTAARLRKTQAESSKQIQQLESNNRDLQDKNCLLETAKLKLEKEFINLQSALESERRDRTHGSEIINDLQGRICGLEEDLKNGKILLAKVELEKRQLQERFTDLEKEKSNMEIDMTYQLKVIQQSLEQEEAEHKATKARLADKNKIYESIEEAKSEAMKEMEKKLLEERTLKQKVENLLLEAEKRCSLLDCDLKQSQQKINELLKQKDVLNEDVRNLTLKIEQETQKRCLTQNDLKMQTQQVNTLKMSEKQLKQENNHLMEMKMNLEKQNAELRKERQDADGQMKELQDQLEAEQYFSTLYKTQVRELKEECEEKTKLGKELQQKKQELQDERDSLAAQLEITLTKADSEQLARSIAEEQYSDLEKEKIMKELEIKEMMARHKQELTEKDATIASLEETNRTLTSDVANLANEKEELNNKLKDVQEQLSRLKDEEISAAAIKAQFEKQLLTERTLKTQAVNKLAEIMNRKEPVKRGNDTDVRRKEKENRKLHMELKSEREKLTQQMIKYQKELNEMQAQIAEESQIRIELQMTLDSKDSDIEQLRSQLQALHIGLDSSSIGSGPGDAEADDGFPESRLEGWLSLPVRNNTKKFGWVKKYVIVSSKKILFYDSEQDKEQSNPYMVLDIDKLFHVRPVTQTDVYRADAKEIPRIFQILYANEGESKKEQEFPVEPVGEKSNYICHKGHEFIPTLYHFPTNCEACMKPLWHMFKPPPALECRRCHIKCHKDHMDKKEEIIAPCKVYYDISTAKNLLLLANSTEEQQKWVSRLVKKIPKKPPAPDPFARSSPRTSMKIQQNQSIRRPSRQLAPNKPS
Procedure: as §1
In a final reaction volume of 25 μl, ROCK-II (h) (5-10 mU) is incubated with 50 mM Tris pH 7.5, […] EGTA, 30 μM […] (SEQ ID NO:222), 10 mM MgAcetate and [y-33P-ATP] (specific activity approx. 500 cpm/pmol, concentration as required). The reaction is initiated by the addition of the MgATP mix. After incubation for 40 minutes at room temperature, the reaction is stopped by the addition of 5 μl of a 3% phosphoric acid solution. 10 μl of the reaction is then spotted onto a P30 filtermat and washed three times for 5 minutes in 75 mM phosphoric acid and once in methanol prior to drying and scintillation counting.

Chain of EGFR(L861Q)(h) (P00533 25-1210 L861Q): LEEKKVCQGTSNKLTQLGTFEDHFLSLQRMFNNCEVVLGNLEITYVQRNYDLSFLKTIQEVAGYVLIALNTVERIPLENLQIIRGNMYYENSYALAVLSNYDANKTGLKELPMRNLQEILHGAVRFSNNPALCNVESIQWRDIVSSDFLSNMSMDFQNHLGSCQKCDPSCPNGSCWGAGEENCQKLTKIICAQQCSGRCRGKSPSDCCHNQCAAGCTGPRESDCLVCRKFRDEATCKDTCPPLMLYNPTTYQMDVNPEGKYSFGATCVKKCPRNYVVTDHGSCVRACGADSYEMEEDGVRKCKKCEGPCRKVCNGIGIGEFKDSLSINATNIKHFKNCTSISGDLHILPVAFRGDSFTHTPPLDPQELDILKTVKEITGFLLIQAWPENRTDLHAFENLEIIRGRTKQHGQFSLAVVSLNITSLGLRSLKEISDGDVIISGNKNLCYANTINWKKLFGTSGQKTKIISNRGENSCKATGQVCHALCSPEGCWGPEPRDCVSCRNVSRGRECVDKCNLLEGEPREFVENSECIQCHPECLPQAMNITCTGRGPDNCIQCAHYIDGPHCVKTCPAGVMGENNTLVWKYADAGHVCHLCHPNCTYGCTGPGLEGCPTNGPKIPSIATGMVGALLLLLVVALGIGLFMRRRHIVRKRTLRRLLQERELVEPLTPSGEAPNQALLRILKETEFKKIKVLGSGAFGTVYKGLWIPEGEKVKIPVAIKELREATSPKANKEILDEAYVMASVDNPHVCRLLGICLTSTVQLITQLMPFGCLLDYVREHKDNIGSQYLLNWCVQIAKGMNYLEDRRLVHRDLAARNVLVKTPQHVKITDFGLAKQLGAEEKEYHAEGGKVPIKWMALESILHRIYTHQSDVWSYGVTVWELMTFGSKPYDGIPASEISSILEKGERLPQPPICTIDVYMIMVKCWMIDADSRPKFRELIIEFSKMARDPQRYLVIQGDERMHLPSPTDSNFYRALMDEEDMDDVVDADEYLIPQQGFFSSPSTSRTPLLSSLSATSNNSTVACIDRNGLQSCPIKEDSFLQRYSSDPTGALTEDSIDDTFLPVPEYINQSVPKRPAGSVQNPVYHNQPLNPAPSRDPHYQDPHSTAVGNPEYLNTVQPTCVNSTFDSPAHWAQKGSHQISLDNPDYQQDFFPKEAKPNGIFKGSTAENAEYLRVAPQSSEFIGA

Row | remaining activity at 2.5 µM [1] [%] | remaining activity at 2.5 µM [2] [%] | remaining activity at 2.5 µM [3] [%] | remaining activity at 2.5 µM [4] [%] | remaining activity at 2.5 µM [5] [%] | remaining activity at 2.5 µM [6] [%] | Structure (SMILES)
1 | 109 | 122 | 99 | 103 | 122 | 115 | CC(=O)N1CCN(c2ccc3c(=O)c(C(=O)NCCN4CCCC4)c4n(C)c5ccccc5n4c3n2)CC1 [Compound B-1]
2 | 94 | 110 | 77 | 48 | 124 | 64 | CN1CCCC1CCNC(=O)c1cn2c3c(c(N4CCC(c5cnccn5)C4)c(F)cc3c1=O)Oc1cc3ccccc3cc1-2 (stereo not drawn) [Compound A-1]
